Measured values from patent publication US7799809B2, “Carboxamide compounds and their use as calpain inhibitors” (Abbott GmbH & Co. KG, priority 2006, dated 2010).

Legend:
cathepsin S = molecular target: T1, cathepsin S (Homo sapiens, UniProt P25774); experiment: Cathepsin S enzyme inhibition in vitro (kinetic fluorescence assay); type: biochemical; conditions: recombinant human cathepsin S vs calpain I
T1 construct: purchased Calbiochem 219343; host or cells: E. coli
Method: (§1) The following solutions and buffers were employed: • HBS (for 40 ml): 800 μl M HEPES; 2.16 ml 100 mM KCl; 4.8 ml 1M NaCl; 3.59 ml 5% glucose; 60 μl μM MgSO4; 400 μl 100 mM Na pyruvate, 28.19 ml water; pH 7.2-7.5. • lysis buffer (for 20 ml): 400 μl M Tris pH 8.2; 2.74 ml 1M NaCl; 520 μl 0.5M EDTA; 2 ml 10% triton X-100; 0.8 ml (=1:25) CompletePlus (1 tablet/2 ml H2O); 200 μl 100 mM Pefabloc; 13.34 ml water, pH 8.2. • TBST (10×) (for 1 l): 100 mM Tris (12.1 g); 1.5M NaCl (87 g); 1% Tween 20 (10 g), adjusted to pH 8. I Enzyme Inhibition In Vitro: • Testing for blockade of the corresponding enzymic activities was carried out by means of kinetic fluorescence assays (excitation 390 nm, emission 460 nm). • Apparent Ki values were calculated from the experimentally determined IC50 values by the Cheng-Prussoff relation assuming a reversible competitive enzyme inhibition. The Km values of the substrates used under the assay conditions indicated above were: 90 μM (Z-Phe-Arg-AMC, cathepsin B), 10 μM (Z-Gly-Pro-Arg-AMC, cathepsin K), 2 μM (Z-Phe-Arg-AMC, cathepsin L), and 30 μM (Z-Val-Val-Arg-AMC, cathepsin S). • The indicated Ki values are averages of the inhibition constants calculated on the basis of 2 to 4 independent dose-effect plots.
(§2) The following assays were used: • 1. Calpain I: • 20 nM calpain-I—isolated from human erythrocytes (Calbiochem #208713), 100 μM Suc-Leu-Tyr-AMC (Bachem #1-1355) as substrate in buffer with 62 mM imidazole, 0.3 mM CaCl2, 0.10% CHAPS, 0.05% BSA, 1 mM DTT at pH 7.3 and room temperature. • 2. Cathepsin B: • 0.25 nM cathepsin B—isolated from human liver (Calbiochem #219362), 100 μM Z-Phe-Arg-AMC (Bachem #I-1160) as substrate 50 mM MES, 2 mM EDTA, 0.05% Brij 35, 2.5 mM L-cysteine, pH 6.0, room temperature. • 3. Cathepsin K: • 3 nM cathepsin K—activated from recombinant human procathepsin K from E. coli (Calbiochem #342001), 10 μM Z-Gly-Pro-Arg-AMC (Biomol #P-142) as substrate in 50 mM MES, 2 mM EDTA, 0.05% Brij 35, 2.5 mM L-cysteine, pH 6.0, room temperature. • 4. Cathepsin L: • 1 nM cathepsin L—isolated from human liver (Calbiochem #219402), 2 μM Z-Phe-Arg-AMC (Bachem #1-1160) as substrate in 50 mM MES, 2 mM EDTA, 0.05% Brij 35, 2.5 mM L-cysteine, pH 6.0, room temperature. • 5. Cathepsin S: • 0.5 nM recombinant human cathepsin S from E. coli (Calbiochem #219343), 20 μM Z-Val-Val-Arg-AMC (Bachem #1-1540) as substrate in 50 mM MES, 2 mM EDTA, 0.05% Brij 35, 2.5 mM L-cysteine, pH 6.0, room temperature. • The results of the in vitro determination are indicated in Table 1. The following abbreviations are used in Table 1: • The “Calpain activity” column, ++ stands for a calpain Ki (Ki(calpain)) of ≦40 nM and + means: 40 nM<Ki(Calpain)≦100 nM. • The “Sel. cat. B” column indicates the Ki(cathepsin B)/Ki(calpain) ratio. In this connection, ++ means a Ki(cathepsin B)/Ki(calpain) ratio of ≧30 and + means 10≦Ki(cathepsin B)/Ki(calpain)<30. • The “Sel. cat. K” column indicates the Ki(cathepsin K)/Ki(calpain) ratio. In this connection, ++ means a Ki(cathepsin K)/Ki(calpain) ratio of ≧30 and + means 10≦Ki(cathepsin K)/Ki(calpain)<30. • The “Sel. cat. L” column indicates the Ki(cathepsin L)/Ki(calpain) ratio. In this connection, ++ means a Ki(cathepsin L)/Ki(calpain) ratio of ≧50 and + means 30≦Ki(cathepsin L)/Ki(calpain)<50. • The “Sel. cat. S” column indicates the Ki(cathepsin S)/Ki(calpain) ratio. In this connection, ++ means a Ki(cathepsin S)/Ki(calpain) ratio of ≧100 and + means 50≦Ki(cathepsin S)/Ki(calpain)<100.

cathepsin L = molecular target: T2, cathepsin L (Homo sapiens, UniProt P07711); experiment: Cathepsin L enzyme inhibition in vitro (kinetic fluorescence assay); type: biochemical; conditions: cathepsin L isolated from human liver vs calpain I
T2 construct: cathepsin L—isolated from human liver (Calbiochem #219402); purchased Calbiochem 219402; host or cells: human liver (tissue-derived)
T2 sequence (P07711 114-333): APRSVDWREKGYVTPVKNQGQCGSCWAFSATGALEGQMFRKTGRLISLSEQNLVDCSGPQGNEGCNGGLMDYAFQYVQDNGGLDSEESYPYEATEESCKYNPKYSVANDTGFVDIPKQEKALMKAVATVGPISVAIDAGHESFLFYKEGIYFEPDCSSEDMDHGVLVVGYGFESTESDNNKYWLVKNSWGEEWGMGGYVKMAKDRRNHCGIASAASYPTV
Method: as §1, §2

T1 sequence (P25774 115-331): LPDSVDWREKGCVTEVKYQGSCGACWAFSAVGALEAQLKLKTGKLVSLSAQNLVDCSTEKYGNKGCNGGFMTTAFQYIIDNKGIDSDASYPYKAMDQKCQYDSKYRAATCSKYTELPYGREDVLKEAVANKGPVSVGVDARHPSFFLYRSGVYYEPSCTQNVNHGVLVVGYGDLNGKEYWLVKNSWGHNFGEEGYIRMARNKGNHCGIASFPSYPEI

NC(=O)C(=O)C(Cc1cccs1)NC(=O)c1cccnc1-n1ccc(-c2ccc(F)cc2)n1 (centres unmarked) [Example 57, N-[3-Amino-2,3-dioxo-1-(2-thienylmethyl)propyl]-2-[3-(4-fluorophenyl)-1H-pyrazol-1-yl]nicotinamide]
Sel cat. S: Ki(cathepsin S)/Ki(calpain) ratio (cathepsin S): ++ (++ means a Ki(cathepsin S)/Ki(calpain) ratio of ≧100)
Sel cat. L: Ki(cathepsin L)/Ki(calpain) ratio (cathepsin L): ++ (++ means a Ki(cathepsin L)/Ki(calpain) ratio of ≧50)

CCCCC(NC(=O)c1cccnc1-n1ccc(-c2ccc(OC)cc2)n1)C(=O)C(N)=O (centres unmarked) [Example 49, N-{1-[Amino(oxo)acetyl]pentyl}-2-[3-(4-methoxyphenyl)-1H-pyrazol-1-yl]nicotinamide]
Sel cat. S: Ki(cathepsin S)/Ki(calpain) ratio (cathepsin S): ++ (++ means a Ki(cathepsin S)/Ki(calpain) ratio of ≧100)
Sel cat. L: Ki(cathepsin L)/Ki(calpain) ratio (cathepsin L): + (+ means 30≦Ki(cathepsin L)/Ki(calpain)<50)

COc1ccc(-c2cn(-c3ncccc3C(=O)NC(Cc3ccccc3)C(=O)C(N)=O)cn2)cc1 (centres unmarked) [Example 13, N-(3-Amino-1-benzyl-2,3-dioxopropyl)-2-[4-(4-methoxyphenyl)-1H-imidazol-1-yl]nicotinamide]
Sel cat. S: Ki(cathepsin S)/Ki(calpain) ratio (cathepsin S): + (+ means 50≦Ki(cathepsin S)/Ki(calpain)<100)
Sel cat. L: Ki(cathepsin L)/Ki(calpain) ratio (cathepsin L): ++ (++ means a Ki(cathepsin L)/Ki(calpain) ratio of ≧50)

CCCCC(NC(=O)c1cccnc1-n1cnc(-c2ccc(C(F)(F)F)cc2)c1)C(=O)C(N)=O.Cl (centres unmarked) [Example 17, N-{1-[Amino(oxo)acetyl]pentyl}-2-{4-[4-(trifluoromethyl)phenyl]-1H-imidazol-1-yl}nicotinamide hydrochloride]
Sel cat. S: Ki(cathepsin S)/Ki(calpain) ratio (cathepsin S): + (+ means 50≦Ki(cathepsin S)/Ki(calpain)<100)
Sel cat. L: Ki(cathepsin L)/Ki(calpain) ratio (cathepsin L): ++ (++ means a Ki(cathepsin L)/Ki(calpain) ratio of ≧50)

Cl.NC(=O)C(=O)C(Cc1ccccc1)NC(=O)c1cccnc1-n1cnc(-c2ccc(C(F)(F)F)cc2)c1 (centres unmarked) [Example 18, N-(3-Amino-1-benzyl-2,3-dioxopropyl)-2-{4-[4-(trifluoromethyl)phenyl]-1H-imidazol-1-yl}nicotinamide hydrochloride]
Sel cat. S: Ki(cathepsin S)/Ki(calpain) ratio (cathepsin S): ++ (++ means a Ki(cathepsin S)/Ki(calpain) ratio of ≧100)
Sel cat. L: Ki(cathepsin L)/Ki(calpain) ratio (cathepsin L): + (+ means 30≦Ki(cathepsin L)/Ki(calpain)<50)

NC(=O)C(=O)C(Cc1ccccc1)NC(=O)c1cccnc1-n1cc2c(n1)-c1ccccc1OCC2 (centres unmarked) [Example 141, N-[3-Amino-2,3-dioxo-1-(phenylmethyl)propyl]-2-(4,5-dihydro-2H-[1]benzoxepino[5,4-c]pyrazol-2-yl)pyridine-3-carboxamide]
Sel cat. S: Ki(cathepsin S)/Ki(calpain) ratio (cathepsin S): ++ (++ means a Ki(cathepsin S)/Ki(calpain) ratio of ≧100)
Sel cat. L: Ki(cathepsin L)/Ki(calpain) ratio (cathepsin L): ++ (++ means a Ki(cathepsin L)/Ki(calpain) ratio of ≧50)

NC(=O)C(=O)C(Cc1ccccc1)NC(=O)c1cccnc1-n1cc2ccccc2n1 (centres unmarked) [Example 78, N-(3-Amino-1-benzyl-2,3-dioxopropyl)-2-(2H-indazol-2-yl)nicotinamide]
Sel cat. S: Ki(cathepsin S)/Ki(calpain) ratio (cathepsin S): + (+ means 50≦Ki(cathepsin S)/Ki(calpain)<100)
Sel cat. L: Ki(cathepsin L)/Ki(calpain) ratio (cathepsin L): ++ (++ means a Ki(cathepsin L)/Ki(calpain) ratio of ≧50)

CCCCC(NC(=O)c1cccnc1-n1ccc(-c2cccc(N3CCOCC3)c2)n1)C(=O)C(N)=O (centres unmarked) [Example 59, N-{1-[Amino(oxo)acetyl]pentyl}-2-[3-(3-morpholin-4-ylphenyl)-1H-pyrazol-1-yl]nicotinamide]
Sel cat. S: Ki(cathepsin S)/Ki(calpain) ratio (cathepsin S): + (+ means 50≦Ki(cathepsin S)/Ki(calpain)<100)
Sel cat. L: Ki(cathepsin L)/Ki(calpain) ratio (cathepsin L): ++ (++ means a Ki(cathepsin L)/Ki(calpain) ratio of ≧50)

N#Cc1ccc(-c2ccn(-c3ncccc3C(=O)NC(Cc3ccccc3)C(=O)C(N)=O)n2)cc1 (centres unmarked) [Example 62, N-(3-Amino-1-benzyl-2,3-dioxopropyl)-2-[3-(4-cyanophenyl)-1H-pyrazol-1-yl]nicotinamide]
Sel cat. S: Ki(cathepsin S)/Ki(calpain) ratio (cathepsin S): ++ (++ means a Ki(cathepsin S)/Ki(calpain) ratio of ≧100)
Sel cat. L: Ki(cathepsin L)/Ki(calpain) ratio (cathepsin L): ++ (++ means a Ki(cathepsin L)/Ki(calpain) ratio of ≧50)

CCCCC(NC(=O)c1cccnc1-n1ccc(-c2ccc(CN3CCOCC3)cc2)n1)C(=O)C(N)=O (centres unmarked) [Example 45, N-{1-[Amino(oxo)acetyl]pentyl}-2-{3-[4-(morpholin-4-ylmethyl)phenyl]-1H-pyrazol-1-yl}nicotinamide]
Sel cat. S: Ki(cathepsin S)/Ki(calpain) ratio (cathepsin S): + (+ means 50≦Ki(cathepsin S)/Ki(calpain)<100)

COCc1cn(-c2ncccc2C(=O)NC(Cc2ccccc2)C(=O)C(N)=O)nc1-c1ccc(F)cc1 (centres unmarked) [Example 170, N-[3-Amino-2,3-dioxo-1-(phenylmethyl)propyl]-2-{3-(4-fluorophenyl)-4-[(methyloxy)methyl]-1H-pyrazol-1-yl}pyridine-3-carboxamide]
Sel cat. L: Ki(cathepsin L)/Ki(calpain) ratio (cathepsin L): + (+ means 30≦Ki(cathepsin L)/Ki(calpain)<50)

NC(=O)C(=O)C(Cc1ccccc1)NC(=O)c1cccnc1-n1cnc(-c2ccc(N3CCOCC3)cc2)c1 (centres unmarked) [Example 14, N-(3-Amino-1-benzyl-2,3-dioxopropyl)-2-[4-(4-morpholin-4-ylphenyl)-1H-imidazol-1-yl]nicotinamide]
Sel cat. S: Ki(cathepsin S)/Ki(calpain) ratio (cathepsin S): ++ (++ means a Ki(cathepsin S)/Ki(calpain) ratio of ≧100)

CN(C)Cc1cn(-c2ncccc2C(=O)NC(Cc2ccccc2)C(=O)C(N)=O)nc1-c1cccc(C(F)(F)F)c1 (centres unmarked) [Example 176, N-[3-Amino-2,3-dioxo-1-(phenylmethyl)propyl]-2-{4-[(dimethylamino)methyl]-3-[3-(trifluoromethyl)phenyl]-1H-pyrazol-1-yl}pyridine-3-carboxamide]
Sel cat. S: Ki(cathepsin S)/Ki(calpain) ratio (cathepsin S): ++ (++ means a Ki(cathepsin S)/Ki(calpain) ratio of ≧100)

CCCCC(NC(=O)c1cc(Cl)cnc1-n1cnc(-c2ccccc2)c1)C(=O)C(N)=O.Cl (centres unmarked) [Example 24, N-{1-[Amino(oxo)acetyl]pentyl}-5-chloro-2-(4-phenyl-1H-imidazol-1-yl)nicotinamide hydrochloride]
Sel cat. L: Ki(cathepsin L)/Ki(calpain) ratio (cathepsin L): + (+ means 30≦Ki(cathepsin L)/Ki(calpain)<50)

CCN(CC)c1ccc(-c2ccn(-c3ncccc3C(=O)NC(Cc3ccccc3)C(=O)C(N)=O)n2)cc1 (centres unmarked) [Example 42, N-(3-Amino-1-benzyl-2,3-dioxopropyl)-2-{3-[4-(diethylamino)phenyl]-1H-pyrazol-1-yl}nicotinamide]
Sel cat. S: Ki(cathepsin S)/Ki(calpain) ratio (cathepsin S): ++ (++ means a Ki(cathepsin S)/Ki(calpain) ratio of ≧100)

NC(=O)C(=O)C(Cc1ccccc1)NC(=O)c1cccnc1-n1cc(CCN2CCOCC2)c(-c2ccc(F)cc2)n1 (centres unmarked) [Example 165, N-[3-Amino-2,3-dioxo-1-(phenylmethyl)propyl]-2-[3-(4-fluorophenyl)-4-(2-morpholin-4-ylethyl)-1H-pyrazol-1-yl]pyridine-3-carboxamide]
Sel cat. S: Ki(cathepsin S)/Ki(calpain) ratio (cathepsin S): ++ (++ means a Ki(cathepsin S)/Ki(calpain) ratio of ≧100)

CCCCC(NC(=O)c1cccnc1-n1cnc(-c2ccccc2)c1)C(=O)C(N)=O (centres unmarked) [Example 2, N-{1-[Amino(oxo)acetyl]pentyl}-2-(4-phenyl-1H-imidazol-1-yl)nicotinamide]
Sel cat. L: Ki(cathepsin L)/Ki(calpain) ratio (cathepsin L): ++ (++ means a Ki(cathepsin L)/Ki(calpain) ratio of ≧50)
